According to patent US11524966B1 (Valo Early Discovery, Inc., priority 2017, dated 2022):
Like-named read-outs stand apart in the source and are kept apart here.

Target: T1, USP28 (His-tagged USP28-FL-mammalian) (Homo sapiens, UniProt Q96RU2)
T1 construct: Expression of USP28 (1-1077)-TEV-6*His (pTT5 vector); made in house; host or cells: Expi293f cells (pTT5 vector)
T1 sequence (Q96RU2 1-1077): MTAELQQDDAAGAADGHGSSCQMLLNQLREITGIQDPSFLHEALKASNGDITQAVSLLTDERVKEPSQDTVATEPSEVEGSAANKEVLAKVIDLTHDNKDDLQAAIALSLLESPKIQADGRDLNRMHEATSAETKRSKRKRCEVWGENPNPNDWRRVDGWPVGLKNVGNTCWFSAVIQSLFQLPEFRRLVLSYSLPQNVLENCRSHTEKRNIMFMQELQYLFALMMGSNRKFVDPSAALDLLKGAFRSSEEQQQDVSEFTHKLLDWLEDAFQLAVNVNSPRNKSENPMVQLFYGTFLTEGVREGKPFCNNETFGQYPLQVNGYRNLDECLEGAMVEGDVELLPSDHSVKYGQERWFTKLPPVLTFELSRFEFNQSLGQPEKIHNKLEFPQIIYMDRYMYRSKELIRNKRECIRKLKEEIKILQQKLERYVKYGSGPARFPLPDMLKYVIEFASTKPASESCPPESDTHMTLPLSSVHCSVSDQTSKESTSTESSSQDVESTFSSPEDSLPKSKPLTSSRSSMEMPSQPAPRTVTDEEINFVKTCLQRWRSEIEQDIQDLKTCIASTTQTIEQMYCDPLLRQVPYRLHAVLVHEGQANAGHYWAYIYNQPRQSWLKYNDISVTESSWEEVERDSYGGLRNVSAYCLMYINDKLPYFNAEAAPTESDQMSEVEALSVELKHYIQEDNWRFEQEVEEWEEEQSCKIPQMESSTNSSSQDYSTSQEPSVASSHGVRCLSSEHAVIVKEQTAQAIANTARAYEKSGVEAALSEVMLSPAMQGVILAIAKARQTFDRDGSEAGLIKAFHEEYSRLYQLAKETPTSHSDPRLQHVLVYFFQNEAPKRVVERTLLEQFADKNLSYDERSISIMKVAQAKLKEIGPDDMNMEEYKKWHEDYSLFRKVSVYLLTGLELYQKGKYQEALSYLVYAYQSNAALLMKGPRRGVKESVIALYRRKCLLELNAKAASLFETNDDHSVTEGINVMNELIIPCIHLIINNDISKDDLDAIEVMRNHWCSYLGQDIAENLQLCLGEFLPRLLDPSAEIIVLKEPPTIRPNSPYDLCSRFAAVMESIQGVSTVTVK
Assay: Ubiquitin-Rhodamine 110 Assay for USP28 Activity, Example A-1(a)
Assay type: biochemical
Details: Example A-1(a), read-out: USP28 A-1(a) IC50 range
Outline: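 IC50 from 4-parameter logistic fit of percent inhibition versus no-enzyme and DMSO controls; compounds 25 μM to 1.3 nM, 3-fold. Ub-Rh110 cleavage (25 nM, below Km) by […] mammalian-expressed USP28-FL-His ran 45 min at room temperature, stopped with 10 mM citric acid, read ex 485/em 535.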

| Structure (SMILES) | IC50 (Ub-Rh110 assay) | IC50 (Ubiquitin-Rhodamine 110 assay) |
| --- | --- | --- |
| O=C(N[C@H]1COc2cc(N3CC4CCC(C3)N4)ccc2C1)c1ccc(NCc2ccccc2)nc1 [Example 2-25, N-((3R)-7-(3,8-diazabicyclo[3.2.1]octan-3-yl)chroman-3-yl)-6-(benzylamino)nicotinamide] | 50 to 200 nM |  |
| Cc1nc2sc(C(=O)N[C@H]3COc4cc(N5CC6CC(C5)N6)ccc4C3)c(N)c2s1 [Example 2-26, N-((3R)-7-(3,6-diazabicyclo[3.1.1]heptan-3-yl)chroman-3-yl)-6-amino-2-methylthieno[2,3-d]thiazole-5-carboxamide] | 50 to 200 nM |  |
| Cc1nc2sc(C(=O)N[C@H]3COc4cc(N5CC6CCCC(C5)N6)ccc4C3)c(N)c2s1 [Example 2-27] | 1 to 50 nM |  |
| Cc1nc2sc(C(=O)N[C@H]3COc4cc(N5CC6CNCC(C5)C6(F)F)ccc4C3)c(N)c2s1 [Example 2-28, 6-amino-N-((3R)-7-(9,9-difluoro-3,7-diazabicyclo[3.3.1]nonan-3-yl)chroman-3-yl)-2-methylthieno[2,3-d]thiazole-5-carboxamide] | 1 to 50 nM |  |
| CCn1ccc2cc(C(=O)N[C@H]3COc4cc(N5CC6CCCC(C5)N6)ccc4C3)nnc21 [Example 2-29, N-((3R)-7-(3,9-diazabicyclo[3.3.1]nonan-3-yl)chroman-3-yl)-7-ethyl-7H-pyrrolo[2,3-c]pyridazine-3-carboxamide] | 50 to 200 nM |  |
| CCn1ccc2cc(C(=O)N[C@H]3COc4cc(N5CC6CNCC(C5)C6(F)F)ccc4C3)cnc21 [Example 2-30, N-((3R)-7-(9,9-difluoro-3,7-diazabicyclo[3.3.1]nonan-3-yl)chroman-3-yl)-1-ethyl-1H-pyrrolo[2,3-b]pyridine-5-carboxamide] | 1 to 50 nM |  |
| Cc1cc(C)c2c(N)c(C(=O)N[C@H]3COc4c(C#N)c(N5CCNCC5)cc(F)c4C3)sc2n1 [Example 2-31, (R)-3-amino-N-(8-cyano-5-fluoro-7-(piperazin-1-yl)chroman-3-yl)-4,6-dimethylthieno[2,3-b]pyridine-2-carboxamide] | 1 to 50 nM |  |
| Cc1cc(C)c2c(N)c(C(=O)N[C@H]3COc4cc(N5CCNCC5)c(C#N)c(F)c4C3)sc2n1 [Example 2-32, (R)-3-amino-N-(6-cyano-5-fluoro-7-(piperazin-1-yl)chroman-3-yl)-4,6-dimethylthieno[2,3-b]pyridine-2-carboxamide] | 1 to 50 nM |  |
| Cc1ccc2c(N)c(C(=O)N[C@H]3COc4cc(N5CC6CNCC(C5)C6(F)F)c(C#N)cc4C3)sc2n1 [Example 2-33, 3-amino-N-((3R)-6-cyano-7-(9,9-difluoro-3,7-diazabicyclo[3.3.1]nonan-3-yl)chroman-3-yl)-6-methylthieno[2,3-b]pyridine-2-carboxamide] | 1 to 50 nM |  |
| [2H]C([2H])([2H])O[C@H]1CN(c2ccc3c(c2)OC[C@H](NC(=O)c2sc4nc(C)ccc4c2N)C3)C[C@@H]1N [Example 2-38, 3-amino-N-((R)-7-((3S,4S)-3-amino-4-(methoxy-d3)pyrrolidin-1-yl)chroman-3-yl)-6-methylthieno[2,3-b]pyridine-2-carboxamide] | 50 to 200 nM |  |
| Cc1cnc2c(N)c(C(=O)N[C@H]3CCc4nc(N5CCNCC5)ccc4C3)sc2n1 [Example 23-6, 7-amino-3-methyl-N-[(6S)-2-(piperazin-1-yl)-5,6,7,8-tetrahydroquinolin-6-yl]thieno[2,3-b]pyrazine-6-carboxamide] |  | 50 to 200 nM |
